Experiment [1] relates to isolated liver mitochondria. Put plainly: Mitochondrial oxygen consumption rate (OCR) assay. Particulars: isolated rat liver mitochondria, state 3 (S3) respiration, glutamate/malate; Table 3. In kind it is biochemical, Sprague-Dawley rats. The text has this:
Male Sprague-Dawley rats (8-10 weeks of age) were euthanized with an overdose of carbon dioxide. The liver was rapidly excised and placed in ice-cold phosphate-buffered saline (PBS) before isolation process. Mitochondria were isolated using the MitoCheck® Mitochondrial Isolation Kit (Cayman Chemical #701010, Ann Arbor, Mich.) according to manufacturer's instructions. In brief, approximately 10-14 grams of liver tissues were finely minced using a pair of scissors, and washed repeatedly with ice-cold PBS, followed by Mito Isolation Buffer. The minced tissues were homogenized with 30 ml Mito Homogenization Buffer in 40 ml dounce homogenizer and a smooth glass grinder. The homogenate was split into two clean 30 ml polycarbonate tubes and centrifuged at 1,000×g, 4° C., for 3 minutes. The supernatant was subjected to further centrifugation at 10,000×g, 4° C., for 10 minutes. The supernatant was discarded and mitochondrial pellet was suspended in Mito Isolation Buffer using a glass stirring rod and stored on ice until use. Protein concentration of mitochondria was determined using a bicinchoninic acid protein assay kit (Thermo Scientific, Waltham, Mass.).
Oxygen consumption was monitored as essentially described by Will et al., “Analysis of mitochondrial function using phosphorescent oxygen-sensitive probes,” Nature Protocols Vol. 1(6) (2006) 2563. Briefly, isolated mitochondria (50 μg mitochondrial proteins/state 3 (S3) of mitochondrial respiration for inhibitor identification, 100 μg/S2 for uncoupler identification) were incubated with compounds in 25 μl of Measurement Buffer (MB: 250 mM sucrose, 15 mM KCl, 1 mM EGTA, 5 mM MgCl2, 30 mM K2HPO4, pH 7.4) including 1% DMSO on ice for 1 hour, then mixed with 25 μl of substrate mixture including an oxygen-sensitive phosphorescent dye (MitoXpress Xtra, Agilent, Santa Clara, Calif.), glutamate (25 mM, G1626, Sigma, St. Louis, Mo.), malate (25 mM, M6413, Sigma), ADP (3.3 mM, A2754, Sigma, only for S3 of mitochondrial respiration), Fatty acid free BSA (0.1%, A0281, Sigma), and a complex II-specific inhibitor TTFA (2 μM, T27006, Sigma for the assessment of complex I-mitochondrial respiration with glutamate/malate) in a black wall/clear bottom 384-well plate. The mixtures were covered with HS mineral oil (Agilent) using the Viaflo 384-channel pipette (Integra, Hudson, N.H.). Oxygen consumption was measured for 30 min at 30° C. using a spectrofluorimeter (FLUOstar Omega, BMG Labtech, Cary, N.C.). In S3, DMSO vehicle control and antimycin A (10 μM) were used to define 0% and 100% inhibition. In S2, DMSO vehicle and FCCP (0.5-1 μM) was used to define 0% and 100% uncoupling, respectively. Area under curve typically in a range of 0-12 min (S3) or 0-24 min (S2) was used for calculations. IC50 or UC50 (uncoupling concentration), a concentration that causes 50% of inhibition or maximal (uncoupling) activation of oxygen consumption, was used to evaluate experimental quality. Data were presented as μM (per 50 μg (S3) or 100 μg (S2) mitochondrial proteins). Compounds with IC50: <100 μM (S3) and/or UC50: <200 μM (S2) were considered as high-risk on mitochondrial toxicity. Compounds with 25-50% changes in inhibition and/or uncoupling were categorized as medium-risk, since compounds with >25% changes are considered as responders.
Toxicity associated with mitochondrial dysfunction has presented a problem for promising potential antibiotics as we as other types of therapeutics. The mitochondrial oxygen consumption rate (OCR) assay is considered a reliable indicator of potential internal organ toxicity issues that may occur with powerful antibiotics. The carboxylate compounds of the invention show unexpected lower toxicity than prior art “glycine nitrile” arylomycin analogs (see, e.g., WO 2018/149419) in the mitochondrial oxygen consumption rate (OCR) assay.

Experiment [2] concerns Escherichia coli strain ATCC 25922. Description: Serum MIC, broth micro-dilution. Particulars: Escherichia coli, ATCC25922; 50% v/v mouse serum in Mueller Hinton II cation adjusted Broth, 35° C., 22 hours; Table 4; read-out: E. coli 25922 Serum MIC. In kind it is cell-based. In a few lines:
(§1)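 Plates held at 35 °C for 22 h after adding bacteria to a final OD600 of 0.0005. Medium was a 1:1 mix of mouse serum and cation-adjusted Mueller Hinton II broth. Ten two-fold compound dilutions began at 64, 4, 0.5 or 0.13 μg/mL, per CLSI microdilution.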

The subject of experiment [3] is Pseudomonas aeruginosa PA01. Description: Serum MIC, broth micro-dilution. The following applies: Pseudomonas aeruginosa, PA01; 50% v/v mouse serum in Mueller Hinton II cation adjusted Broth, 35° C., 22 hours; Table 4; read-out: P. aeruginosa 01 Serum MIC. Type of experiment: cell-based. The gist of the method: as §1
A general note: Dilution methods test growth across graded concentrations, often in twofold steps.

In experiment [4] the test system is Acinetobacter baumannii ATCC 17978. Description: Serum MIC, broth micro-dilution. Type of experiment: cell-based. Particulars: Acinetobacter baumannii, ATCC17978, 50% v/v mouse serum in Mueller Hinton II cation adjusted Broth, 35° C., 22 hours. In a few lines: as §1
Experiment [5] deals with Klebsiella pneumoniae ATCC 700603. Description: Serum MIC, broth micro-dilution. In kind it is cell-based. The following applies: Klebsiella pneumoniae, ATCC700603; 50% v/v mouse serum in Mueller Hinton II cation adjusted Broth, 35° C., 22 hours; Table 4; read-out: K pneumoniae 700603 Serum MIC. The gist of the method: as §1
[6] abbreviates: Table 4, read-out: A. baumanii 17978 Serum MIC.
The mark [7] stands for this setting: Table 5, read-out: Acinetobacter baumanii 17978 Serum MIC.

Values after ≈ are worked out from the molar mass of the structure shown. Like-named read-outs stand apart in the source and are kept apart here.

With `C[C@@H]1NC(=O)[C@@H](N(C)C(=O)[C@H](CCN)NC(=O)c2c(N)nc(-c3ccc(C(C)(C)C)cc3)nc2C(F)F)c2cc(OC[C@H](O)CN)c(O)c(c2)-c2cc(ccc2OC[C@H](O)CN)C[C@@H](C(=O)O)NC1=O` [Example 32, (8S,11S,14S)-18-hydroxy-11-methyl-14-[methyl-[(2S)-4-amino-2-[[2-(4-tert-butylphenyl)-4-amino-6-difluoro-methyl-pyrimidine-5-carbonyl]amino]-butanoyl]amino]-10,13-dioxo-3,17-bis[(2R)-3-amino-2-hydroxy-propoxy]-9,12-diazatricyclo-[13.3.1.12,6]icosa-1(18),2(20),3,5,15(19), 16-hexaene-8-carboxylic acid], in experiment [1], the IC50 (as a rule, the midpoint of a concentration-inhibition curve) is > 100 µM. For the same compound, the MIC (as a rule, the least concentration at which growth counts as inhibited) in experiment [2] was found to be 0.25 µM (≈ 0.245 µg/mL); in experiment [3], 16 µM (≈ 15.7 µg/mL); in experiment [4] (setting [6]) it was 4 µM (≈ 3.92 µg/mL); in experiment [4] (setting [7]), 4 µM (≈ 3.92 µg/mL); in experiment [5] it was 0.25 µM (≈ 0.245 µg/mL).
As to `Cc1nc(-c2ccc(C(C)(C)C)cc2)nc(CN)c1C(=O)N[C@@H](CNS(N)(=O)=O)C(=O)N(C)[C@@H]1C(=O)N[C@@H](C)C(=O)N[C@H](C(=O)O)Cc2ccc(OC[C@H](O)CN)c(c2)-c2cc1cc(OC[C@H](O)CN)c2O` [Example 72, (8S,11S,14S)-3,17-bis[(2R)-3-amino-2-hydroxy-propoxy]-14-[[(2S)-2-[[4-(amino-methyl)-2-(4-tert-butylphenyl)-6-methyl-pyrimidine-5-carbonyl]amino]-3-(sulfamoylamino)-propanoyl]-methyl-amino]-18-hydroxy-11-methyl-10,13-dioxo-9,12-diazatri-cyclo[13.3.1.12,6]icosa-1(18),2(20),3,5,15(19), 16-hexaene-8-carboxylic acid], the IC50 in experiment [1] was > 200 µM. Further, the MIC in experiment [2] worked out at 0.5 µM (≈ 0.511 µg/mL); in experiment [3] it was 8 µM (≈ 8.18 µg/mL); in experiment [4] (setting [6]), 14 µM (≈ 14.3 µg/mL); in experiment [4] (setting [7]), 14 µM (≈ 14.3 µg/mL); in experiment [5], 0.31 µM (≈ 0.317 µg/mL).
In turn, `Cc1nc(-c2ccc(OCCC(C)(C)C)cc2)ncc1C(=O)N[C@@H](CCN)C(=O)N(C)[C@@H]1C(=O)N[C@@H](C)C(=O)N[C@H](C(=O)O)Cc2ccc(OC[C@H](O)CN)c(c2)-c2cc1cc(OC[C@H](O)CN)c2O` [Example 27, (8S,11S,14S)-18-hydroxy-11-methyl-14-[methyl-[(2S)-4-amino-2-[[2-[4-(3,3-dimethylbutoxy)-phenyl]-4-methyl-pyrimidine-5-carbonyl]amino]-butanoyl]amino]-10,13-dioxo-3,17-bis[(2R)-3-amino-2-hydroxy-propoxy]-9,12-diazatricyclo-[13.3.1.12,6]icosa-1(18),2(20),3,5,15(19), 16-hexaene-8-carboxylic acid] returned a 50% inhibitory concentration (IC50) in experiment [1] of 20 µM. In addition, the MIC came out at 0.25 µM (≈ 0.243 µg/mL) in experiment [2]; 8 µM (≈ 7.78 µg/mL) in experiment [3]; 12 µM (≈ 11.7 µg/mL) in experiment [4] (setting [6]); 12 µM (≈ 11.7 µg/mL) in experiment [4] (setting [7]); 0.25 µM (≈ 0.243 µg/mL) in experiment [5].
Regarding `Cc1nc(-c2ccc3c(c2)CCC3(C)C)nc(N)c1C(=O)N[C@@H](CNS(N)(=O)=O)C(=O)N(C)[C@@H]1C(=O)N[C@@H](C)C(=O)N[C@H](C(=O)O)Cc2ccc(OC[C@H](O)CN)c(c2)-c2cc1cc(OC[C@H](O)CN)c2O` [Example 66, (8S,11S,14S)-14-[[(2S)-2-[[4-amino-2-(1,1-dimethylindan-5-yl)-6-methyl-pyrimidine-5-carbonyl]-amino]-3-(sulfamoyl-amino)propanoyl]-methyl-amino]-3,17-bis[(2R)-3-amino-2-hydroxy-propoxy]-18-hydroxy-11-methyl-10,13-dioxo-9,12-diazatricyclo-[13.3.1.12,6]icosa-1(18),2(20),3,5,15(19), 16-hexaene-8-carboxylic acid], in experiment [1], the IC50 came to 69 µM. Besides, the minimal inhibitory concentration (MIC) in experiment [2] worked out at 0.75 µM (≈ 0.765 µg/mL); in experiment [3], 6 µM (≈ 6.12 µg/mL); in experiment [4] (setting [6]), 12 µM (≈ 12.2 µg/mL); in experiment [4] (setting [7]) it was 12 µM (≈ 12.2 µg/mL); in experiment [5], 0.75 µM (≈ 0.765 µg/mL).
Regarding `Cc1nc(-c2ccc(C(C)(C)C)cc2)nc(N)c1C(=O)N[C@@H](CCN)C(=O)N(C)[C@@H]1C(=O)N[C@@H](C)C(=O)N[C@H](C(=O)O)Cc2ccc(OC[C@H](O)CN)c(c2)-c2cc1cc(OC[C@H](O)CN)c2O` [Example 24, (8S,11S,14S)-18-hydroxy-11-methyl-14-[methyl-[(2S)-4-amino-2-[[4-amino-2-(4-tert-butylphenyl)-6-methyl-pyrimidine-5-carbonyl]amino]-butanoyl]amino]-10,13-dioxo-3,17-bis[(2R)-3-amino-2-hydroxy-propoxy]-9,12-diazatricyclo-[13.3.1.12,6]icosa-1(18),2(20),3,5,15(19), 16-hexaene-8-carboxylic acid], in experiment [1], the IC50 was > 200 µM. Also, the MIC in experiment [2] was 0.5 µM (≈ 0.472 µg/mL); in experiment [3], 16 µM (≈ 15.1 µg/mL); in experiment [4] (setting [6]) it was 16 µM (≈ 15.1 µg/mL); in experiment [4] (setting [7]), 16 µM (≈ 15.1 µg/mL); in experiment [5] it was 0.25 µM (≈ 0.236 µg/mL).
`Cc1nc(-c2ccc(C(C)(C)C)cc2)nc(N)c1C(=O)N[C@@H](CNS(N)(=O)=O)C(=O)N(C)[C@@H]1C(=O)N[C@@H](C)C(=O)N[C@H](C(=O)O)Cc2ccc(OC[C@H](O)CN)c(c2)-c2cc1cc(OC[C@H](O)CN)c2O` [Example 2, (8S,11S,14S)-18-hydroxy-11-methyl-14-[methyl-[(2S)-2-[[4-amino-2-(4-tert-butylphenyl)-6-methyl-pyrimidine-5-carbonyl]amino]-3-(sulfamoylamino)-propanoyl]amino]-10,13-dioxo-3,17-bis[(2R)-3-amino-2-hydroxy-propoxy]-9,12-diazatricyclo-[13.3.1.12,6]icosa-1(18),2(20),3,5,15(19), 16-hexaene-8-carboxylic acid] displayed an IC50 in experiment [1] of 261 µM. Moreover, the MIC in experiment [2] was 0.5 µM (≈ 0.504 µg/mL); in experiment [3], 3.3 µM (≈ 3.33 µg/mL); in experiment [4] (setting [6]), 11 µM (≈ 11.1 µg/mL); in experiment [4] (setting [7]) it was 11 µM (≈ 11.1 µg/mL); in experiment [5], 0.5 µM (≈ 0.504 µg/mL).
In experiment [1], `Cc1nc(-c2ccc(C(C)(C)C)cc2)ncc1C(=O)N[C@@H](CCN)C(=O)N(C)[C@@H]1C(=O)N[C@@H](C)C(=O)N[C@H](C(=O)O)Cc2ccc(OC[C@H](O)CN)c(c2)-c2cc1cc(OC[C@H](O)CN)c2O` [Example 23, (8S,11S,14S)-18-hydroxy-11-methyl-14-[methyl-[(2S)-4-amino-2-[[2-(4-tert-butylphenyl)-4-methyl-pyrimidine-5-carbonyl]amino]-butanoyl]amino]-10,13-dioxo-3,17-bis[(2R)-3-amino-2-hydroxy-propoxy]-9,12-diazatricyclo-[13.3.1.12,6]icosa-1(18),2(20),3,5,15(19), 16-hexaene-8-carboxylic acid] had an IC50 of 22 µM. Besides, the MIC turned out to be 0.22 µM (≈ 0.204 µg/mL) in experiment [2]; 16 µM (≈ 14.8 µg/mL) in experiment [3]; 8 µM (≈ 7.42 µg/mL) in experiment [4] (setting [6]); 8 µM (≈ 7.42 µg/mL) in experiment [4] (setting [7]); 0.16 µM (≈ 0.148 µg/mL) in experiment [5].

These data come from patent US11208387B2, “Macrocyclic broad spectrum antibiotics” (Genentech, Inc., priority 2019, dated 2021).
